# Results: patent publication US12226385B2, “Synergistic composition for activating intracellular secondary messenger(cAMP) pathway” (CELAGENEX RESEARCH (INDIA) PRIVATE LTD., priority 2021, dated 2025)
# Like-named read-outs stand apart in the source and are kept apart here.
# Experiments:
# [1] = system: CREB (Cyclic AMP Response Element-Binding Protein); experiment: Estimation of CREB (Cyclic AMP Response Element-Binding Protein); type: cell-based, Rat; details: doses per Table 1
# Experimental: g. Estimation of CREB (Cyclic AMP Response Element-Binding Protein) nM Results:
# (§1) The estimation of modulatory effect of test substance on biochemical parameters were analysed in C6 (Rat Glioblastoma) cell. […] This indicated the increase in synapse number and neuroplasticity.
# experimental rat [2] = experiment: Open Field Test in rats; type: in vivo
# Experimental: (§2) Evaluation of physical parameters of the test substances in experimental rat.
# (§3) • Species: Rat • Strain: Wister • Sex: Male • No. of animals: 48 Animals (n=6 per group) • Body weight: 180-200 gm Group, Designation and Dose Levels:
# (§4) The tests were performed by the known technique.
# (§5) The following behavioural test were conducted at the end of the treatment, • Force Swim Test • Open Field Test • Behavioural at Novel Object Test • Behaviour at Elevated Plus Maze (EPM) test
# experimental rat [3] = experiment: Force Swim Test in rats; type: in vivo; details: male Wister rats, n=6, end of treatment, doses per Table 3
# Experimental: as §2, §3, §4, §5
# cAMP = experiment: Modulatory effect on cAMP levels in C6 cells (ELISA kit); type: cell-based; details: C6 (Rat Glioblastoma) cells, 28 hours of incubation, doses per Table 1
# Experimental: To assess the effectiveness of test substance on modulation of cAMP and evaluation of BDNF in Rat Glioblastoma cells.
# The cytotoxicity profiling of the test substance was carried out to find the safe dose on C6 cells. […] The levels of cAMP in the cell lysate were measured using a suitable ELISA kit to infer the modulatory effect.
# 10 mg of test substance was separately dissolved in 100 μL of DMSO and volume was made up with Ham's F-12 medium supplemented with 2% inactivated FBS to obtain a stock solution of 10 mg/mL concentration and sterilized by 0.22μ syringe filtration. Serial two-fold dilutions were prepared from this stock solution for further studies.
# C6 (Rat Glioblastoma) cell line was procured from NCCS, India. Stock cells was cultured in Ham's F-12 medium supplemented with 10% inactivated Fetal Bovine Serum (FBS), penicillin (100 IU/ml), streptomycin (100 μg/ml) and amphotericin B (5 μg/ml) in a humidified atmosphere of 5% CO2 at 37° C. until confluent. Passaging was done by centrifuging the cells, followed by seeding the pellet into a tissue culture vessel. The stock cultures were grown in 25 cm2 culture flasks and all experiments will be carried out in 96 microtitre plates (Tarsons India Pvt. Ltd., Kolkata, India).
# To perform the assay, cells were seeded in 24-well plates containing […] complete Ham's F-12 with 4.5 g/L glucose. […] Then, the selected dose of test substances and positive control (Clozapine) was added to the cells. After 28 hours of incubation, the cell supernatants from respective treatment wells were collected and assayed to estimate the levels of cyclic AMP using a commercially available kit.
# experimental rat [4] = experiment: Novel Object Test in rats; type: in vivo
# Experimental: as §2, §3, §4, §5
# Table 5 represent behavioural at novel object test where latency time spent towards the novel objects indicated better memory and learning ability. This test is based on the spontaneous tendency of rats to spend more time exploring a novel object than a familiar one.
# experimental rat [5] = experiment: Elevated Plus Maze (EPM) test in rats; type: in vivo
# Experimental: as §2, §3, §4, §5
# BDNF = experiment: Estimation of BDNF levels in C6 cells (Rat BDNF ELISA kit); type: cell-based; details: C6 (Rat Glioblastoma) cells, 28 hours of incubation, doses per Table 1
# Experimental: To perform the assay, cells were seeded in 24-well plates containing 500 μL complete Ham's F-12 with 4.5 g/L glucose. After 24 h, the confluent monolayer of cells was firstly incubated with the corresponding inhibitor compound for 1-4 h (based on standardization) minutes in the incubator at 37° C. and 5% CO2. Then, the selected dose of test substances and positive control was added to the cells. After 28 hours of incubation, the cell supernatants from respective treatment wells were collected and assayed to estimate the levels of BDNF using a commercially available Rat BDNF ELISA kit.
# ALCAR = experiment: Estimation of ALCAR plasma level (ALCAR ELISA kit); type: cell-based, Rat; details: doses per Table 1
# Experimental: f. Estimation of ALCAR Plasma Level (Nmol/Ml): Assay Performed by ALCAR ELISA Kit
# as §1
# [6] = system: Adult Patients with Major Depressive Disorder; experiment: Clinical study, serum Acetyl-L carnitine (ALCAR) levels; type: in vivo, human
# Text: (§6) A double-blind, Fixed-dose study, 80 participants (males and females) with major depression were randomly assigned to receive test samples. Age eligibility for study include 18 Years to 65 Years (Adult, Older Adult)
# To measure serum Acetyl-L carnitine levels pre-treatment and end of 12 weeks and correlate it with severity of depression and treatment outcomes.
# [7] = system: Adult Patients with Major Depressive Disorder; experiment: Double-blind, fixed-dose clinical study, Hamilton Rating Scale for Depression (HAM-D); type: in vivo, human
# Experimental: Composition-1—(3R)-3-acetyloxy-4-(trimethylazaniumyl)butanoate+N-4-Aminobutylguanidine—500 mg+250 mg
# as §6
# Participants were evaluated at visits at screening, baseline/randomization, and 4, 8, and 12 weeks after randomization. Masking—Triple (Participant, Investigator, Outcomes Assessor); Parallel Assignment
# Pre-assignment Details: A one-week single-blind placebo period was completed prior to randomization.
# Change From Baseline in Hamilton Rating Scale for Depression (HAM-D) at Week 4, 8 and 12 [Time Frame: Change from baseline in HAM-D at week 4, 8 and 12]
# The HAMD is a clinician-rated 21-item scale was used to rate the patient's depressive state. It was also used to identify obsessive-compulsive, genital, and somatic symptoms, as well as diurnal variation in the presence of symptoms. Each item was scored on a 1, 2, 3, 4 or 5-point Likert scale. A score of 0 indicated the absence of symptoms, and a score of 2, 3 or 4 indicated symptoms of maximum severity. The total score range is 0 to 62 (higher score indicates a greater depressive state).
# [8] = male Wister rats, n=6, end of treatment, doses per Table 3
# [9] = pretreatment, whole arm (Table 8)
structure (smiles),measurement,setting,value
CN1CCN(C2=Nc3cc(Cl)ccc3Nc3ccccc32)CC1 [Clozapine],CREB,[1],0.5 nM
same,Open Field Test Distance walked in corners,experimental rat [2]; [8],2200 cm
same,Open Field Test Latency to reach center,experimental rat [2]; [8],38 s
same,Force Swim Test Immobility,experimental rat [3],189 s
same,cAMP,cAMP,4.1 pmol/µL
same,Latency to reach Novel Object,experimental rat [4]; [8],03 s
same,Number of times sniffing the object,experimental rat [4]; [8],62 times
same,Time Spent sniffing the object,experimental rat [4]; [8],13%
same,Number of entries in to open arm,experimental rat [5]; [8],10 times
same,Number of times head dipping,experimental rat [5]; [8],18 times
same,Number of times rearing,experimental rat [5]; [8],25 times
same,Time Spent Rearing,experimental rat [5]; [8],19%
same,Time in the open arms,experimental rat [5]; [8],15%
same,time spent head dipping,experimental rat [5]; [8],21%
same,BDNF,BDNF,77 ng/L
same,Plasma ALCAR,ALCAR,21 nmol/mL
CN(C)CCC[C@@]1(c2ccc(F)cc2)OCc2cc(C#N)ccc21 [Escitalopram],CREB,[1],0.8 nM
same,"Mean Serum ALCAR, Non-Responder group",[6]; Baseline,0.94 µg/mL
same,"Mean Serum ALCAR, Remission group",[6]; Baseline,1.20 µg/mL
same,"Mean Serum ALCAR, Responder group",[6]; Baseline,0.91 µg/mL
same,"Mean Serum ALCAR, Non-Responder group",[6]; Week-12,0.99 µg/mL
same,"Mean Serum ALCAR, Remission group",[6]; Week-12,3.53 µg/mL
same,"Mean Serum ALCAR, Responder group",[6]; Week-12,2.19 µg/mL
same,Mean serum ALCAR at pretreatment,[6]; [9],1.01 microgram/ml
same,Open Field Test Distance walked in corners,experimental rat [2]; [8],1900 cm
same,Open Field Test Latency to reach center,experimental rat [2]; [8],26 s
same,Mean HAM-D Score,[7]; Baseline,26.2
same,Mean HAM-D Score,[7]; Week-4,25.72
same,Non-Responder Rate,[7]; Week-4,(100%)
same,"Non-Responder Rate, patients/total",[7]; Week-4,40/40
same,Remission Rate (HAM-D Score <7),[7]; Week-4,(0%)
same,"Remission Rate (HAM-D Score <7), patients/total",[7]; Week-4,0/40
same,Responder Rate (50% Reduction from baseline),[7]; Week-4,(0%)
same,"Responder Rate (50% Reduction from baseline), patients/total",[7]; Week-4,0/40
same,Mean HAM-D Score,[7]; Week-8,21.45
same,Non-Responder Rate,[7]; Week-8,(97.5%)
same,"Non-Responder Rate, patients/total",[7]; Week-8,39/40
same,Remission Rate (HAM-D Score <7),[7]; Week-8,(0%)
same,"Remission Rate (HAM-D Score <7), patients/total",[7]; Week-8,0/40
same,Responder Rate (50% Reduction from baseline),[7]; Week-8,(2.5%)
same,"Responder Rate (50% Reduction from baseline), patients/total",[7]; Week-8,1/40
same,Mean HAM-D Score,[7]; Week-12,13.75
same,Non-Responder Rate,[7]; Week-12,(52.5%)
same,"Non-Responder Rate, patients/total",[7]; Week-12,21/40
same,Remission Rate (HAM-D Score <7),[7]; Week-12,(17.5%)
same,"Remission Rate (HAM-D Score <7), patients/total",[7]; Week-12,7/40
same,Responder Rate (50% Reduction from baseline),[7]; Week-12,(30%)
same,"Responder Rate (50% Reduction from baseline), patients/total",[7]; Week-12,12/40
same,Non-Responder Remission Rate in Female Subgroup,"[7]; Week-12, female subgroup",(75%)
same,"Non-Responder Remission Rate in Female Subgroup, patients/total","[7]; Week-12, female subgroup",21/28
same,Responder Remission Rate in Female Subgroup,"[7]; Week-12, female subgroup",(25%)
same,"Responder Remission Rate in Female Subgroup, patients/total","[7]; Week-12, female subgroup",7/28
same,Mean HAM-D Score at pretreatment,[7]; [9],26.2
same,Force Swim Test Immobility,experimental rat [3],68 s
same,cAMP,cAMP,6.0 pmol/µL
same,Latency to reach Novel Object,experimental rat [4]; [8],32 s
same,Number of times sniffing the object,experimental rat [4]; [8],48 times
same,Time Spent sniffing the object,experimental rat [4]; [8],09%
same,Number of entries in to open arm,experimental rat [5]; [8],07 times
same,Number of times head dipping,experimental rat [5]; [8],12 times
same,Number of times rearing,experimental rat [5]; [8],18 times
same,Time Spent Rearing,experimental rat [5]; [8],16%
same,Time in the open arms,experimental rat [5]; [8],11%
same,time spent head dipping,experimental rat [5]; [8],12%
same,Plasma ALCAR,ALCAR,23 nmol/mL
"CC(=O)O[C@H](CC(=O)[O-])C[N+](C)(C)C [Group 4, (3R)-3-acetyloxy-4-(trimethylazaniumyl)butanoate]",CREB,[1],1.0 nM
same,Open Field Test Distance walked in corners,experimental rat [2]; [8],1860 cm
same,Open Field Test Latency to reach center,experimental rat [2]; [8],27 s
same,Force Swim Test Immobility,experimental rat [3],55 s
same,cAMP,cAMP,4.8 pmol/µL
same,Latency to reach Novel Object,experimental rat [4]; [8],35 s
same,Number of times sniffing the object,experimental rat [4]; [8],49 times
same,Time Spent sniffing the object,experimental rat [4]; [8],08%
same,Number of entries in to open arm,experimental rat [5]; [8],08 times
same,Number of times head dipping,experimental rat [5]; [8],12 times
same,Number of times rearing,experimental rat [5]; [8],18 times
same,Time Spent Rearing,experimental rat [5]; [8],15%
same,Time in the open arms,experimental rat [5]; [8],12%
same,time spent head dipping,experimental rat [5]; [8],11%
same,BDNF,BDNF,88 ng/L
same,Plasma ALCAR,ALCAR,25 nmol/mL
"N=C(N)NCCCCN [Group 5, N-4-aminobutylguanidine]",CREB,[1],1.2 nM
same,Open Field Test Distance walked in corners,experimental rat [2],1820 cm
same,Open Field Test Latency to reach center,experimental rat [2],25 s
same,Force Swim Test Immobility,experimental rat [3],59 s
same,cAMP,cAMP,5.1 pmol/µL
same,Time Spent sniffing the object,experimental rat [4],09%
same,Latency to reach Novel Object,experimental rat [4]; [8],36 s
same,Number of times sniffing the object,experimental rat [4]; [8],47 times
same,Time Spent Rearing,experimental rat [5],13%
same,time spent head dipping,experimental rat [5],10%
same,Number of entries in to open arm,experimental rat [5]; [8],07 times
same,Number of times head dipping,experimental rat [5]; [8],11 times
same,Number of times rearing,experimental rat [5]; [8],16 times
same,Time in the open arms,experimental rat [5]; [8],11%
same,BDNF,BDNF,91 ng/L
same,Plasma ALCAR,ALCAR,22 nmol/mL
